Results from US20100028889A1, “COMPANION DIAGNOSTIC ASSAYS FOR CANCER THERAPY” (ABBOTT LABORATORIES, priority 2006, published 2010).

What was measured:
Experiment in all cases: sensitivity of leukemia/lymphoma cell line, 5 uM cut-off
Assay type in all cases: cell-based
SUDHL4 = settings: Homo sapiens, SU-DHL-4, read-out: sensitivity class by EC50
Procedure: (§1) The following SCLC cell lines were obtained from ATCC (Manassis, Va.): NCI-H889, NCI-H1963, NCI-H1417, NCI-H146, NCI-H187, DMS53, NCI-H510, NCI-H209, NCI-H211, NCI-H345, NCI-H524, NCI-H69, DMS79, SHP77, NCI-H1688, NCI-H446, NCI-H740, NCI-H1048, NCI-H82, NCI-H196, SW1271, H69AR, NCI-H526, NCI-H865, NCI-H748, NCI-H711, and DMS114. All cells were cultured in the ATCC recommended media at 37° C. in a humidified atmosphere containing 5% CO2. The following leukemia and lymphoma cell lines were obtained from ATCC (Manassis, Va.): MV-4-11, RS4;11, Loucy, KG-1A, DOHH2, Rs11380, CCRF-HSB-2, CCRF-CEM, CEM/C1, Reh, SUP-B15, MOLT-4, SUDHL4, HL-60, RPMI 8226, A3, Daudi, WSU-NHL, Pfeiffer, Jurkat I 9.2, Jurkat, MEG-01, U-937, K-562, and Raji.
(§2) The 25 leukemia/lymphoma cell lines were also tested for sensitivity to ABT-737 using the 5 uM cut-off, and sensitive cell lines were MV-4-11, RS4;11, Loucy, KG-1A, DOHH2, Rs11380, CCRF-HSB-2, CCRF-CEM, CEM/C1, Reh, SUP-B15, MOLT-4, SUDHL4, HL-60, RPMI 8226, A3, Daudi, WSU-NHL, Pfeiffer, and Jurkat I 9.2, and the resistant cell lines Jurkat, MEG-01, U-937, K-562, and Raji.
(§3) The 25 leukemia/lymphoma cell lines were also tested for sensitivity to ABT-263 using the 5 uM cut-off, and sensitive cell lines were MV-4-11, RS4;11, Loucy, KG-1A, DOHH2, Rs11380, CCRF-HSB-2, CCRF-CEM, CEM/C1, Reh, SUP-B15, MOLT-4, SUDHL4, HL-60, RPMI 8226, A3, Daudi, WSU-NHL, Pfeiffer, and Jurkat I 9.2, and the resistant cell lines Jurkat, MEG-01, U-937, K-562, and Raji.

Loucy = settings: Homo sapiens, read-out: sensitivity class by EC50
Procedure: as §1, §2, §3

CEM/C1 = settings: Homo sapiens, read-out: sensitivity class by EC50
Procedure: as §1, §2, §3

Daudi = settings: Homo sapiens, read-out: sensitivity class by EC50
Procedure: as §1, §2, §3

CCRF-HSB-2 = settings: Homo sapiens, read-out: sensitivity class by EC50
Procedure: as §1, §2, §3

MOLT-4 = settings: Homo sapiens, read-out: sensitivity class by EC50
Procedure: as §1, §2, §3

Rs11380 = settings: Homo sapiens, read-out: sensitivity class by EC50
Procedure: as §1, §2, §3

DOHH2 = settings: Homo sapiens, DOHH-2, read-out: sensitivity class by EC50
Procedure: as §1, §2, §3

RS4;11 = settings: Homo sapiens, read-out: sensitivity class by EC50
Procedure: as §1, §2, §3

Jurkat = settings: Homo sapiens, read-out: sensitivity class by EC50
Procedure: as §1, §2, §3

RPMI 8226 = settings: Homo sapiens, read-out: sensitivity class by EC50
Procedure: as §1, §2, §3

MV-4-11 = settings: Homo sapiens, MV4-11, read-out: sensitivity class by EC50
Procedure: as §1, §2, §3

A3 = settings: Homo sapiens, read-out: sensitivity class by EC50
Procedure: as §1, §2, §3

Reh = settings: Homo sapiens, read-out: sensitivity class by EC50
Procedure: as §1, §2, §3

WSU-NHL = settings: Homo sapiens, read-out: sensitivity class by EC50
Procedure: as §1, §2, §3

CCRF-CEM = settings: Homo sapiens, read-out: sensitivity class by EC50
Procedure: as §1, §2, §3

KG-1A = settings: Homo sapiens, read-out: sensitivity class by EC50
Procedure: as §1, §2, §3

Pfeiffer = settings: Homo sapiens, read-out: sensitivity class by EC50
Procedure: as §1, §2, §3

Raji = settings: Homo sapiens, read-out: sensitivity class by EC50
Procedure: as §1, §2, §3

MEG-01 = settings: Homo sapiens, read-out: sensitivity class by EC50
Procedure: as §1, §2, §3

HL-60 = settings: Homo sapiens, read-out: sensitivity class by EC50
Procedure: as §1, §2, §3

Jurkat I 9.2 = settings: Homo sapiens, read-out: sensitivity class by EC50
Procedure: as §1, §2, §3

K-562 = settings: Homo sapiens, K562, read-out: sensitivity class by EC50
Procedure: as §1, §2, §3

SUP-B15 = settings: Homo sapiens, read-out: sensitivity class by EC50
Procedure: as §1, §2, §3

U-937 = settings: Homo sapiens, read-out: sensitivity class by EC50
Procedure: as §1, §2, §3

Structure (SMILES) | EC50 (SUDHL4) [µM] | EC50 (Loucy) [µM] | EC50 (CEM/C1) [µM] | EC50 (Daudi) [µM] | EC50 (CCRF-HSB-2) [µM] | EC50 (MOLT-4) [µM] | EC50 (Rs11380) [µM] | EC50 (DOHH2) [µM] | EC50 (RS4;11) [µM] | EC50 (Jurkat) [µM] | EC50 (RPMI 8226) [µM] | EC50 (MV-4-11) [µM] | EC50 (A3) [µM] | EC50 (Reh) [µM] | EC50 (WSU-NHL) [µM] | EC50 (CCRF-CEM) [µM] | EC50 (KG-1A) [µM] | EC50 (Pfeiffer) [µM] | EC50 (Raji) [µM] | EC50 (MEG-01) [µM] | further results
CC1(C)CCC(c2ccc(Cl)cc2)=C(CN2CCN(c3ccc(C(=O)NS(=O)(=O)c4ccc(N[C@H](CCN5CCOCC5)CSc5ccccc5)c(S(=O)(=O)C(F)(F)F)c4)cc3)CC2)C1 [ABT-263, N-(4-(4-((2-(4-chlorophenyl)-5,5-dimethyl-1-cyclohex-1-en-1-yl)methyl)piperazin-1-yl)benzoyl)-4-(((1R)-3-(morpholin-4-yl)-1-((phenylsulfanyl)methyl)propyl)amino)-3-((trifluoromethyl)sulfonyl)benzenesulfonamide] | < 5 | < 5 | < 5 | < 5 | < 5 | < 5 | < 5 | < 5 | < 5 | > 5 | < 5 | < 5 | < 5 | < 5 | < 5 | < 5 | < 5 | < 5 | > 5 | > 5 | EC50 (HL-60): < 5 µM; EC50 (Jurkat I 9.2): < 5 µM; EC50 (K-562): > 5 µM; EC50 (SUP-B15): < 5 µM; EC50 (U-937): > 5 µM
CN(C)CC[C@H](CSc1ccccc1)Nc1ccc(S(=O)(=O)NC(=O)c2ccc(N3CCN(Cc4ccccc4-c4ccc(Cl)cc4)CC3)cc2)cc1[N+](=O)[O-] [ABT-737, N-(4-(4-((4′-chloro(1,1′-biphenyl)-2-yl)methyl)piperazin-1-yl)benzoyl)-4-(((1R)-3-(dimethylamino)-1-((phenylsulfanyl)methyl)propyl)amino)-3-nitrobenzenesulfonamide] | < 5 | < 5 | < 5 | < 5 | < 5 | < 5 | < 5 | < 5 | < 5 | > 5 | < 5 | < 5 | < 5 | < 5 | < 5 | < 5 | < 5 | < 5 | > 5 | > 5 | EC50 (HL-60): < 5 µM; EC50 (Jurkat I 9.2): < 5 µM; EC50 (K-562): > 5 µM; EC50 (SUP-B15): < 5 µM; EC50 (U-937): > 5 µM
